Measured values reported in ChEMBL document CHEMBL1145418, “Cerebrosides and tocopherol trimers from the seeds of Euryale ferox” (J Nat Prod, 2007).

System: not listed separately
Assay: (§1) Toxicity against brine shrimp after 24 hr by brine shrimp lethality test
Format: organism-based
Details: artemia, in vivo
Work on `CCCCCCC/C=C/CC/C=C/[C@@H](O)[C@H](CO[C@@H]1O[C@H](CO)[C@@H](O)[C@H](O)[C@H]1O)NC(=O)[C@H](O)CCCCCCCCCCCCCCCCCCCC` yielded an LC50 at 24 h of 170 µM. `CCCCCCC/C=C/CC/C=C/[C@@H](O)[C@H](CO[C@@H]1O[C@H](CO)[C@@H](O)[C@H](O)[C@H]1O)NC(=O)[C@H](O)CCCCCCCCCCCCCCCCCCCCCC` gave an LC50 at 24 h of 200 µM.

System: Artemia
Assay: as §1
Format: organism-based
Details: in vivo, 24 h
In the case of `CC1=C(C)[C@]23Oc4c(C)c(C)c5c(c4C[C@]2(CC[C@@](C)(CCCC(C)CCCC(C)CCCC(C)C)O3)C2(CCc3c4c(c(C)c(C)c3O2)O[C@](C)(CCCC(C)CCCC(C)CCCC(C)C)CC4)C1=O)CC[C@@](C)(CCCC(C)CCCC(C)CCCC(C)C)O5` (stereo partly specified) [TOCOPHEROL TRIMER IVA], the Activity is reported as “Non-toxic”. For `CC1=C(C)[C@@]23Oc4c(C)c(C)c5c(c4C[C@@]2(CC[C@@](C)(CCCC(C)CCCC(C)CCCC(C)C)O3)C2(CCc3c4c(c(C)c(C)c3O2)O[C@](C)(CCCC(C)CCCC(C)CCCC(C)C)CC4)C1=O)CC[C@@](C)(CCCC(C)CCCC(C)CCCC(C)C)O5` (stereo partly specified) [TOCOPHEROL TRIMER IVB], the Activity was “Non-toxic”. For `CC1=C(C)[C@]23Oc4c(C)c(C)c5c(c4C[C@]2(CC[C@@](C)(CCCC(C)CCCC(C)CCCC(C)C)O3)C2(Cc3c4c(c(C)c(C)c3O2)O[C@](C)(CCCC(C)CCCC(C)CCCC(C)C)CC4)C1=O)CC[C@@](C)(CCCC(C)CCCC(C)CCCC(C)C)O5` (stereo partly specified) [FEROTOCOTRIMER D], the Activity was “Non-toxic”. For `CC1=C(C)[C@@]23Oc4c(C)c(C)c5c(c4C[C@@]2(CC[C@@](C)(CCCC(C)CCCC(C)CCCC(C)C)O3)C2(Cc3c4c(c(C)c(C)c3O2)O[C@](C)(CCCC(C)CCCC(C)CCCC(C)C)CC4)C1=O)CC[C@@](C)(CCCC(C)CCCC(C)CCCC(C)C)O5` (stereo partly specified) [FEROTOCOTRIMER C], the Activity was “Non-toxic”.
